Laboratory results taken from ChEMBL document CHEMBL1201862, “PubChem BioAssay data set” (2004).
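Protocol summary: plate cells (96-well), add compound at 5 concentrations, incubate 48 h, interpolate endpoints linearly. GI50: concentration for 50% inhibition of growth.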 Active and inactive are the calls of the source. No stated cut-off is given here; in the data, active = GI50 up to about 1.1 µM and inactive = higher.

Tests used:
Test in all cases: NCI-60 cell line screen, 48 h
[1] = test system: SF-295
[2] = test system: DU-145
[3] = test system: BT-549
[4] = test system: NCI-H23
[5] = test system: UACC-62
[6] = test system: HCC 2998
[7] = test system: K562
[8] = test system: CAKI-1
[9] = test system: MCF7
[10] = test system: OVCAR-8
[11] = test system: SK-OV-3
[12] = test system: T47D
[13] = test system: MDA-MB-231
[14] = test system: U-251
[15] = test system: NCI/ADR-RES
[16] = test system: SNB-19
[17] = test system: HOP-62
[18] = test system: COLO 205
[19] = test system: MDA-N
[20] = test system: SR

Measured: GI50

CSc1c(C#N)c(N)n2c1C(=O)N(c1ccccc1)C2=S
inactive: [1] 38.6 µM | [2] > 100 µM | [3] > 100 µM | [4] 28.2 µM | [5] > 100 µM | [6] > 100 µM | [7] > 100 µM | [8] 77.1 µM | [9] > 100 µM | [10] 92.9 µM | [11] 91.6 µM | [12] 52.6 µM | [13] 20.3 µM | [14] 41.9 µM | [15] 80.5 µM | [16] > 100 µM | [17] 63 µM | [18] 30 µM | [19] > 100 µM

CC(C)(C)c1cc(/C=C(\C#N)C(=O)NCCO)cc(C(C)(C)C)c1O
inactive: [1] 16.9 µM | [2] 34 µM | [3] 25.1 µM | [4] 27.9 µM | [5] 13.6 µM | [7] 24 µM | [8] 24.5 µM | [20] 17.5 µM | [9] 26.5 µM | [10] 38.6 µM | [11] 20.7 µM | [12] 20.1 µM | [13] 18.4 µM | [14] 18 µM | [15] 23 µM | [16] 32.1 µM | [17] 21.2 µM | [18] 20.5 µM | [19] 18.7 µM

O=S(=O)(Cc1cnc(O)nc1O)Cc1cnc(O)nc1O
inactive: [1] > 100 µM | [2] > 100 µM | [3] > 100 µM | [4] > 100 µM | [5] > 100 µM | [7] > 100 µM | [8] > 100 µM | [20] 37.8 µM | [9] > 100 µM | [10] > 100 µM | [12] > 100 µM | [13] > 100 µM | [14] > 100 µM | [15] > 100 µM | [16] > 100 µM | [18] > 100 µM | [19] > 100 µM

CCOc1cc(NC(C)=O)ccc1C(=O)NN1C(=O)/C(=C/c2ccc(Cl)cc2)N=C1c1ccccc1
inactive: [1] 38.5 µM | [2] 68.5 µM | [3] 47.4 µM | [4] 41.6 µM | [7] 35.2 µM | [8] 43.1 µM | [20] 46 µM | [9] 4.67 µM | [10] 34 µM | [11] > 100 µM | [12] 13.2 µM | [13] 33.7 µM | [14] 55.8 µM | [15] 42 µM | [16] > 100 µM | [17] 44.9 µM | [18] 33.7 µM | [19] 34.3 µM

COc1ccc(/C(=N/OCCCC(=O)O)c2cccs2)cc1
inactive: [1] > 100 µM | [2] > 100 µM | [3] > 100 µM | [4] > 100 µM | [5] > 100 µM | [6] > 100 µM | [7] > 100 µM | [8] > 100 µM | [9] > 100 µM | [10] > 100 µM | [11] > 100 µM | [12] > 100 µM | [13] > 100 µM | [14] > 100 µM | [15] > 100 µM | [16] > 100 µM | [17] > 100 µM | [18] > 100 µM | [19] > 100 µM

Cc1sc(N/N=C2\C(=O)Nc3ccccc32)nc1-c1ccccc1
inactive: [1] 11 µM | [2] 11.6 µM | [3] 16.3 µM | [4] 16.6 µM | [5] 13.7 µM | [6] 22.2 µM | [8] 17.4 µM | [9] 15.3 µM | [10] 17.5 µM | [11] 14.9 µM | [12] 13.6 µM | [13] 14.5 µM | [14] 11 µM | [15] 17 µM | [16] 16.6 µM | [17] 12 µM | [18] 13.4 µM | [19] 19.4 µM

O=C1c2ccccc2-c2c1c(-c1ccc([N+](=O)[O-])cc1)nc1ccc3ccccc3c21
inactive: [1] > 100 µM | [2] > 100 µM | [3] > 100 µM | [4] > 100 µM | [5] > 100 µM | [6] > 100 µM | [7] > 100 µM | [8] > 100 µM | [9] > 100 µM | [10] > 100 µM | [11] > 100 µM | [12] > 100 µM | [13] > 100 µM | [14] > 100 µM | [15] > 100 µM | [16] > 100 µM | [17] > 100 µM | [18] > 100 µM | [19] > 100 µM

O=C(O)c1cc2ccccc2c(Cc2c(O)c(C(=O)O)cc3ccccc23)c1O [PAMOIC ACID]
inactive: [1] > 100 µM | [2] > 100 µM | [3] > 100 µM | [4] > 100 µM | [5] > 100 µM | [6] > 100 µM | [7] > 100 µM | [8] > 100 µM | [20] > 100 µM | [10] > 100 µM | [12] > 100 µM | [13] > 100 µM | [14] > 100 µM | [15] > 100 µM | [16] > 100 µM | [17] > 100 µM | [19] > 100 µM

COc1cc(Cc2nccc3cc(OC)c(OC)cc23)c(/N=N/N(C)C)cc1OC
inactive: [1] 19.9 µM | [2] 17.5 µM | [3] 18.2 µM | [4] 19.3 µM | [5] 13.2 µM | [6] 14.6 µM | [7] 4.28 µM | [8] 5.45 µM | [9] 14.6 µM | [10] 15.7 µM | [11] 18.5 µM | [12] 5.36 µM | [13] 14.4 µM | [14] 19.1 µM | [15] 23.1 µM | [16] 30.6 µM | [17] 23.7 µM | [18] 14.4 µM | [19] 19 µM

CC1(C)CC(=O)C2=C(C1)NC1=C(C(=O)CC(C)(C)C1)C2c1ccc([N+](=O)[O-])cc1
inactive: [1] > 100 µM | [2] > 100 µM | [3] > 100 µM | [4] > 100 µM | [5] > 100 µM | [6] > 100 µM | [7] > 100 µM | [8] > 100 µM | [9] > 100 µM | [10] > 100 µM | [11] > 100 µM | [12] > 100 µM | [13] > 100 µM | [14] > 100 µM | [16] > 100 µM | [17] > 100 µM | [18] > 100 µM | [19] > 100 µM

CC(C)(C)c1ccc2c(c1)C(=O)c1ccccc1C2=O
inactive: [1] 56.4 µM | [2] > 100 µM | [3] 24.8 µM | [4] 61.9 µM | [5] 42 µM | [7] 58.1 µM | [8] > 100 µM | [9] 20.6 µM | [10] 44.5 µM | [11] > 100 µM | [12] > 100 µM | [13] > 100 µM | [14] 50 µM | [15] 32.7 µM | [16] > 100 µM | [17] > 100 µM | [18] 25 µM | [19] 37.5 µM
